In US20230083012A1, “DIHYDROPYRIMIDINE DERIVATIVES AND USES THEREOF IN THE TREATMENT OF HBV INFECTION OR OF HBV-INDUCED DISEASES” (priority 2019, published 2023):

Experiments:
[1] = tested on: HBV; assay: Anti-HBV activity in HepG2.2.15 cells (HBV DNA in culture medium by qPCR); format: cell-based; details: Hepatitis B virus, HepG2.2.15, 144 h, HepG2.2.15 cells, 6 days treatment, HBV DNA in culture medium quantified by real-time PCR; read-out: EC50
Method in brief: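 Secreted HBV DNA was measured by real-time PCR after 6-day compound exposure of HepG2.2.15 cells (2% FBS, 37 °C, re-dosed after 3 days), giving EC50 from 8-point 1:3 series starting at 10 or 1 uM. Cytotoxicity (CC50) run separately at lower cell density, top 100 uM.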

[2] = Cytotoxicity determination in HepG2.2.15 cells (CCK-8 cell viability); format: cell-based; details: human, 6 days treatment, CCK-8 assay, highest concentration 100 uM
Method in brief: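 Viability measured by CCK-8 absorbance (450 nm, 630 nm reference, 2.5 h at 37° C) after six days of treatment, medium and compound renewed on day 3. Top concentration 100 uM, eight threefold dilutions in triplicate; cells plated at 5,000/well in 2% FBS medium; CC50 derived.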

SMILES	EC50 [1] [nM]	CC50 at 6 days [2] [nM]
CCOC(=O)C1=C(CN2CC(F)(F)[C@@H]3[C@H]2CON3C[C@H](CC)C(=O)O)NC(c2nccs2)=N[C@H]1c1cccc(F)c1C (single isomer, unassigned) [Compound 178B]	12	> 50000
CCOC(=O)C1=C(CN2CC(F)(F)[C@@H]3CNC[C@@H]32)NC(c2nccs2)=N[C@H]1c1cccc(F)c1C (single isomer, unassigned) [Compound 179]	50	> 3100
CCOC(=O)C1=C(CN2CC(F)(F)[C@@H]3C(=O)N([C@@H](C)C(=O)O)C[C@@H]32)NC(c2nccs2)=N[C@H]1c1cccc(F)c1C (single isomer, unassigned) [Compound 180]	92.6	> 100000
CCOC(=O)C1=C(CN2CC(F)(F)[C@@H]3C(=O)N(C[C@@H](C)C(=O)O)C[C@@H]32)NC(c2nccs2)=N[C@H]1c1cccc(F)c1C (single isomer, unassigned) [Compound 181A]	12.3	52900
CCOC(=O)C1=C(CN2CC(F)(F)C3C(=O)N(C[C@H](C)C(=O)O)C[C@@H]32)NC(c2nccs2)=N[C@H]1c1cccc(F)c1C (single isomer, unassigned) [Compound 181B]	9.5	69900
CCOC(=O)C1=C(CN2CC(F)(F)C3C(=O)N(C[C@@H](CC)C(=O)O)C[C@@H]32)NC(c2nccs2)=N[C@H]1c1cccc(F)c1C (single isomer, unassigned) [Compound 182A]	23.9	49600
CCOC(=O)C1=C(CN2CC(F)(F)[C@@H]3C(=O)N(C[C@H](CC)C(=O)O)C[C@@H]32)NC(c2nccs2)=N[C@H]1c1cccc(F)c1C (single isomer, unassigned) [Compound 182B]	11.3	33300
CCOC(=O)C1=C(CN2CC(F)(F)[C@@H]3CN(C[C@@H](CC)C(=O)O)C(=O)C32)NC(c2nccs2)=N[C@H]1c1cccc(F)c1C (single isomer, unassigned) [Compound 183A]	14.3	40300
CCOC(=O)C1=C(CN2CC(F)(F)[C@@H]3CN(C[C@H](CC)C(=O)O)C(=O)[C@@H]32)NC(c2nccs2)=N[C@H]1c1cccc(F)c1C (single isomer, unassigned) [Compound 183B]	6.4	50200
CCOC(=O)C1=C(CN2CC(F)(F)[C@@H]3C(=O)N(CC4(C(=O)O)CC4)C[C@@H]32)NC(c2nccs2)=N[C@H]1c1cccc(F)c1C (single isomer, unassigned) [Compound 184]	6.7	48300
CCOC(=O)C1=C(CN2CC(F)(F)[C@@H]3CN([C@H]4CC[C@@H](C(=O)O)CC4)C(=O)[C@@H]32)NC(c2nccs2)=N[C@H]1c1cccc(F)c1C (single isomer, unassigned) [Compound 185A]	5.4	48300
CCOC(=O)C1=C(CN2CC(F)(F)[C@@H]3CN([C@H]4CC[C@H](C(=O)O)CC4)C(=O)[C@@H]32)NC(c2nccs2)=N[C@H]1c1cccc(F)c1C (single isomer, unassigned) [Compound 185B]	8.3	27600
CCOC(=O)C1=C(CN2CC(F)(F)[C@@H]3C(=O)N(c4ccn(CCC(C)(C)C(=O)O)n4)C[C@@H]32)NC(c2nccs2)=N[C@H]1c1cccc(F)c1C (single isomer, unassigned) [Compound 187]	81.7	33600
CCOC(=O)C1=C(CN2CC(F)(F)[C@@H]3C(=O)N(C(=O)NCC(C)(C)C(=O)O)C[C@@H]32)NC(c2nccs2)=N[C@H]1c1cccc(F)c1C (single isomer, unassigned) [Compound 188]	62.4	32100
CCOC(=O)C1=C(CN2CC(F)(F)[C@@H]3CN(C(=O)NCC(C)(C)C(=O)O)C(=O)[C@@H]32)NC(c2nccs2)=N[C@H]1c1cccc(F)c1C (single isomer, unassigned) [Compound 189]	18.1	28200
CCOC(=O)C1=C(CN2CC(F)(F)C3C(=O)N(C(=O)CC(C)(C)C(=O)O)C[C@@H]32)NC(c2nccs2)=N[C@H]1c1cccc(F)c1C (single isomer, unassigned) [Compound 190]	4.3	28700
CCOC(=O)C1=C(CN2CC(F)(F)[C@@H]3CN(C(=O)CC(C)(C)C(=O)O)C(=O)[C@@H]32)NC(c2nccs2)=N[C@H]1c1cccc(F)c1C (single isomer, unassigned) [Compound 191]	13.5	35900
CCOC(=O)C1=C(CN2CC(F)(F)[C@@H]3CN([C@H]4C[C@@H](C(=O)O)C4)C(=O)[C@@H]32)NC(c2nccs2)=N[C@H]1c1cccc(F)c1C (single isomer, unassigned) [Compound 192]	16.6	52900

SMILES	EC50 [1] [nM]	CC50 at 6 days [2] [nM]
CCOC(=O)C1=C(CN2CC(F)(F)[C@@H]3C(=O)N(CCC(C)(C)C(=O)O)C[C@@H]32)NC(c2nccs2)=N[C@H]1c1cccc(F)c1C (single isomer, unassigned) [Compound 193]	12.1	48200
CCOC(=O)C1=C(CN2CC(F)(F)[C@@H]3CN(S(=O)(=O)[C@H]4C[C@H](C(=O)O)C4)C[C@@H]32)NC(c2nccs2)=N[C@H]1c1cccc(F)c1C (single isomer, unassigned) [Compound 194]	71.3	36700
CCOC(=O)C1=C(CN2CC(F)(F)[C@@H]3CN(C(C)(C)C(=O)O)C[C@@H]32)NC(c2nccs2)=N[C@H]1c1cccc(F)c1C (single isomer, unassigned) [Compound 195]	40.3	96600
CCOC(=O)C1=C(CN2CC(F)(F)[C@@H]3CN(C4(C(=O)O)CC4)C[C@@H]32)NC(c2nccs2)=N[C@H]1c1cccc(F)c1C (single isomer, unassigned) [Compound 196]	3.3	12800
CCOC(=O)C1=C(CN2CC(F)(F)[C@@H]3CN(C4(C(=O)O)CC4)C(=O)C32)NC(c2nccs2)=N[C@H]1c1cccc(F)c1C (single isomer, unassigned) [Compound 197]	14.2	26000
CCOC(=O)C1=C(CN2CC(F)(F)[C@@H]3C(=O)N(C4(C(=O)O)CC4)C[C@@H]32)NC(c2nccs2)=N[C@H]1c1cccc(F)c1C (single isomer, unassigned) [Compound 198]	96	99600
CCOC(=O)C1=C(CN2CC(F)(F)[C@@H]3C(=O)N(CC4(C(=O)O)CCCC4)C[C@@H]32)NC(c2nccs2)=N[C@H]1c1cccc(F)c1C (single isomer, unassigned) [Compound 199]	11.8	35900
CCOC(=O)C1=C(CN2CC(F)(F)[C@@H]3C(=O)N(CC(C)(C)c4nn[nH]n4)C[C@@H]32)NC(c2nccs2)=N[C@H]1c1cccc(F)c1C (single isomer, unassigned) [Compound 200]	34.7	91300
CCOC(=O)C1=C(CN2CC(F)(F)[C@@H]3CN(CC(C)(C)C(=O)O)C[C@@H]32)NC(c2nccs2)=N[C@@H]1c1ccc(F)nc1C (single isomer, unassigned) [Compound 201, 3-((cis)-1-((5-(ethoxycarbonyl)-6-(6-fluoro-2-methylpyridin-3-yl)-2-(thiazol-2-yl)-3,6-dihydropyrimidin-4-yl)methyl)-3,3-difluorohexahydropyrrolo[3,4-b]pyrrol-5(1H)-yl)-2,2-dimethylpropanoic acid]	72.6	> 100000
CCOC(=O)C1=C(CN2CC(F)(F)[C@@H]3C(=O)N(CC(CC)(CC)C(=O)O)C[C@@H]32)NC(c2nccs2)=N[C@H]1c1cccc(F)c1C (single isomer, unassigned) [Compound 202]	23	100000
CCOC(=O)C1=C(CN2C[C@@H](F)[C@@]3(F)CN(CC(C)(C)C(=O)O)C(=O)[C@@H]23)NC(c2nccs2)=N[C@H]1c1cccc(F)c1C (single isomer, unassigned) [Compound 203A]	16.7	44600
CCOC(=O)C1=C(CN2C[C@@H](F)[C@@]3(F)C(=O)N(CC(C)(C)C(=O)O)C[C@@H]23)NC(c2nccs2)=N[C@H]1c1cccc(F)c1C (single isomer, unassigned) [Compound 204A]	11.2	88900
CCOC(=O)C1=C(CN2C[C@H](F)[C@]3(F)C(=O)N(CC(C)(C)C(=O)O)C[C@H]23)NC(c2nccs2)=N[C@H]1c1cccc(F)c1C (single isomer, unassigned) [Compound 204B]	102	72100
CCOC(=O)C1=C(CN2C[C@H](F)[C@@]3(F)C(=O)N(CC(C)(C)C(=O)O)C[C@@H]23)NC(c2nccs2)=N[C@H]1c1cccc(F)c1C (single isomer, unassigned) [Compound 204C]	7.1	36900
CCOC(=O)C1=C(CN2C[C@@H](F)[C@]3(F)C(=O)N(CC(C)(C)C(=O)O)C[C@H]23)NC(c2nccs2)=N[C@H]1c1cccc(F)c1C (single isomer, unassigned) [Compound 204D]	0.4	48100
CCOC(=O)C1=C(CN2CC(F)(F)[C@@H]3CN(S(=O)(=O)[C@H]4C[C@](C)(C(=O)O)C4)C[C@@H]32)NC(c2nccs2)=N[C@H]1c1cccc(F)c1C (single isomer, unassigned) [Compound 205A]	114	> 50000
CCOC(=O)C1=C(CN2CC(F)(F)[C@@H]3CN(S(=O)(=O)[C@H]4C[C@@](C)(C(=O)O)C4)C[C@@H]32)NC(c2nccs2)=N[C@H]1c1cccc(F)c1C (single isomer, unassigned) [Compound 205B]	103	> 50000
